In ChEMBL document CHEMBL1140665, “Eco-friendly synthesis and study of new plant growth promoters: 3,3'-Diindolylmethane and its derivatives” (2007):

Key:
Type in all cases: functional
Oryza sativa [1] = assay: Growth promoting activity in Oryza sativa assessed as root length at 31.25 ppm on day 5
Oryza sativa [2] = assay: Growth promoting activity in Oryza sativa assessed as shoot length at 125 ppm on day 5
Oryza sativa [3] = assay: Growth promoting activity in Oryza sativa assessed as shoot length at 62.5 ppm on day 5
Oryza sativa [4] = assay: Growth promoting activity in Oryza sativa assessed as root length at 125 ppm on day 5
Oryza sativa [5] = assay: Growth promoting activity in Oryza sativa assessed as root length at 500 ppm on day 5
Oryza sativa [6] = assay: Growth promoting activity in Oryza sativa assessed as shoot length at 250 ppm on day 5
Oryza sativa [7] = assay: Growth promoting activity in Oryza sativa assessed as shoot length at 1000 ppm on day 5
Oryza sativa [8] = assay: Growth promoting activity in Oryza sativa assessed as shoot length at 31.25 ppm on day 5
Oryza sativa [9] = assay: Growth promoting activity in Oryza sativa assessed as root length at 62.5 ppm on day 5
Oryza sativa [10] = assay: Growth promoting activity in Oryza sativa assessed as root length at 250 ppm on day 5
Oryza sativa [11] = assay: Growth promoting activity in Oryza sativa assessed as shoot length at 500 ppm on day 5
Oryza sativa [12] = assay: Growth promoting activity in Oryza sativa assessed as root length at 1000 ppm on day 5

| SMILES | Activity (Oryza sativa [1]) [mm] | Activity (Oryza sativa [2]) [mm] | Activity (Oryza sativa [3]) [mm] | Activity (Oryza sativa [4]) [mm] | Activity (Oryza sativa [5]) [mm] | Activity (Oryza sativa [6]) [mm] | Activity (Oryza sativa [7]) [mm] | Activity (Oryza sativa [8]) [mm] | Activity (Oryza sativa [9]) [mm] | Activity (Oryza sativa [10]) [mm] | Activity (Oryza sativa [11]) [mm] | Activity (Oryza sativa [12]) [mm] |
| --- | --- | --- | --- | --- | --- | --- | --- | --- | --- | --- | --- | --- |
| Cn1cc(Cc2cn(C)c3ccccc23)c2ccccc21 | 20.4 | 12.2 | 10.7 | 25.4 | 19.7 | 10.3 | 6.1 | 9.2 | 23.5 | 22.52 | 8.37 | 16.72 |
| COc1ccc2[nH]cc(Cc3c[nH]c4ccc(OC)cc34)c2c1 | 28.4 | 17.6 | 15.3 | 33.8 | 26.5 | 15.23 | 11.6 | 13.4 | 30.6 | 29.42 | 13.4 | 23.62 |
| Brc1ccc2[nH]cc(Cc3c[nH]c4ccc(Br)cc34)c2c1 | 18.6 | 12.7 | 11 | 23.2 | 16.6 | 10.7 | 6.7 | 9.5 | 21.1 | 19.72 | 8.53 | 13.8 |
| Cn1cc(Cc2cn(C)c3ccc(Br)cc23)c2cc(Br)ccc21 | 16.8 | 11.4 | 10.1 | 22.6 | 15.9 | 9.72 | 5.92 | 9.05 | 19.6 | 18.56 | 8.12 | 12.9 |
| Cc1c(Cc2c(C)n(C)c3ccccc23)c2ccccc2n1C | 34.2 | 18.7 | 16.4 | 39.4 | 33.4 | 16.8 | 12 | 14.7 | 36.4 | 35.42 | 14.7 | 30.72 |
| Cn1cc(Cc2cn(C)c3ccc([N+](=O)[O-])cc23)c2cc([N+](=O)[O-])ccc21 | 16.2 | 11 | 9.96 | 21.4 | 15.2 | 9.56 | 5.76 | 8.87 | 18.9 | 18.16 | 7.82 | 12.12 |
| COc1ccc2c(c1)c(Cc1cn(C)c3ccc(OC)cc13)cn2C | 25.7 | 13.6 | 11.5 | 30.4 | 23.3 | 11.42 | 7.8 | 9.78 | 28.2 | 26.72 | 9.66 | 20.78 |
| c1ccc(-c2[nH]c3ccccc3c2Cc2c(-c3ccccc3)[nH]c3ccccc23)cc1 | 33.6 | 19.5 | 17.4 | 38.7 | 32.6 | 17.32 | 12.9 | 15.2 | 35.9 | 34.2 | 15.5 | 29.76 |
| Cc1[nH]c2ccccc2c1Cc1c(C)[nH]c2ccccc12 | 40.2 | 21.1 | 19.6 | 46.5 | 38.5 | 18.57 | 13.3 | 16.4 | 42.8 | 40.66 | 16.3 | 35.12 |
| Cn1c(-c2ccccc2)c(Cc2c(-c3ccccc3)n(C)c3ccccc23)c2ccccc21 | 29.6 | 17.2 | 15.4 | 34.5 | 28.2 | 15.01 | 10.8 | 13.8 | 31.2 | 30.27 | 13.6 | 25.6 |
| c1ccc2c(Cc3c[nH]c4ccccc34)c[nH]c2c1 [ARUNDINE] | 24.6 | 15.7 | 13.4 | 29.5 | 22.4 |  | 8.45 | 11.2 | 26.3 |  | 10.9 |  |
| O=C(O)Cc1c[nH]c2ccccc12 [INDOLE-3-ACETIC ACID] | 15.6 | 10.6 | 9.81 | 20.3 | 14.4 |  | 5.28 | 8.72 | 18.7 |  | 7.66 |  |
